Test results taken from patent US7759345B2, “Antitumoral derivatives of ET-743” (priority 2001, dated 2010).
Read-outs that look alike come from different tables or passages of the source.

Key:
[1] = tested on: HT-29; test: Inhibition of cell growth by counting cells, HT-29; type: cell-based, human; conditions: Homo sapiens, HT-29, 72 h; three days of incubation; read-out: IC50 (molar) HT-29
Method: (§1) 1°.—Inhibition of Cell Growth by Counting Cells.
(§2) This form of the assay employs 24 well multidishes of 16 mm diameter (Bergeron, 1984; Schroeder, 1981). The tumor cell lines employed are: P-388 (ATCC CCL 46), suspension culture of a lymphoid neoplasm from a DBA/2 mouse; A-549 (ATCC CCL 185), monolayer culture of a human lung carcinoma; HT-29 (ATCC HTB-38), monolayer culture of a human colon carcinoma; MEL-28 (ATCC HTB-72), monolayer culture of a human melanoma and DU-145 (ATCC HTB-81), monolayer culture of a human prostate carcinoma.
(§3) Cells were maintained, in logarithmic phase of growth in Eagle's Minimum Essential Medium, with Earle's Balanced Salts, with non-essential amino acids, with 2.0 mM L-Glutamine, without sodium bicarbonate (EMEM/neaa), supplemented with 10% Fetal Calf Serum (FCS), 10^−2 M. sodium bicarbonate and 0.1 U/l penicillin G+0.1 g/l streptomycin sulfate. For the experiments, cells are harvested from subconfluent cultures using trypsin and resuspended in fresh medium before plating.
(§4) A-549, HT-29, MEL-28 and DU-145 cells were seeded into 16 mm diameter wells at 1×10^4 cells per well in 1 ml aliquots of EMEM 5% FCS containing different concentrations of the sample to be tested. A separate set of cultures without drug was seeded as control of growth, to ensure that cells remained in exponential phase of growth. All determinations are carrying out in duplicate. After three days of incubation at 37° C., 5% CO2 in a 98% humid atmosphere cells were stained with 0.1% crystal violet. An approximately IC50 was determined by comparing the growth in wells with drug to the growth in wells control.
(§5) For quantifying the activity, after the incubation time, cells are trypsinized and counted in a Coulter Counter ZM. All counts (net cells per well), represent the average of duplicate wells. % G, percent of growth relative to cultures without drug. The results of these assays are used to generate dose-response curves from which more precise IC50 values are determined (sample concentration which produces 50% cell growth inhibition).
(§6) Obtained results may predict the usefulness of a certain drug as a potential cancer treatment. For this technique, compounds which show IC50 values smaller than 1 μg/ml are selected to continue with further studies. IC50's data allow to predict that not only could a drug be cystostatic, but also it could have a potential in terms of tumor reduction.

[2] = tested on: A-549; test: Inhibition of cell growth by counting cells, A-549; type: cell-based, human; conditions: Homo sapiens, A549, 72 h; three days of incubation; read-out: IC50 (molar) A-549
Method: as §1, §2, §3, §4, §5, §6

[3] = tested on: HT-29; test: Inhibition of cells growth by colorimetric assay (SRB), HT-29; type: cell-based; conditions: for GI50 / LC50 (concentration for 50% cell killing): Homo sapiens, HT-29, 48 h
Method: (§7) 2°.—Inhibition of Cells Growth by Colorimetric Assay.
(§8) A colorimetric type of assay, using sulforhodamine B (SRB) reaction has been adapted for a quantitative measurement of cell growth and viability [following the technique described by Philip Skehan, et al. (1990), New colorimetric cytotoxicity assay for anticancer drug screening, J. Natl. Cancer Inst., 82:1107-1112]
(§9) This form of the assay employs 96 well cell culture microplates of 9 mm diameter (Faircloth, 1988; Mosmann, 1983). Most of the cell lines are obtained from American Type Culture Collection (ATCC) derived from different human cancer types.
(§10) Cells are maintained in RPMI 1640 10% FBS, supplemented with 0.1 g/l penicillin and 0.1 g/l streptomycin sulfate and then incubated at 37° C., 5% CO2 and 98% humidity. For the experiments, cells were harvested from subconfluent cultures using trypsin and resuspended in fresh medium before plating.
(§11) Cells are seeded in 96 well microtiter plates, at 5×10^3 cells per well in aliquots of 195 μl medium, and they are allowed to attach to the plate surface by growing in drug free medium for 18 hours. Afterward, samples are added in aliquots of 5 μl in a ranging from 10 to 10^−8 μg/ml, dissolved in DMSO/EtOH/PBS (0.5:0.5:99). After 48 hours exposure, the antitumor effect are measured by the SRB methodology: cells are fixed by adding 50 μl of cold 50% (wt/vol) trichloroacetic acid (TCA) and incubating for 60 minutes at 4° C. Plates are washed with deionized water and dried. One hundred μl of SRB solution (0.4% wt/vol in 1% acetic acid) is added to each microtiter well and incubated for 10 minutes at room temperature. Unbound SRB is removed by washing with 1% acetic acid. Plates are air dried and bound stain is solubilized with Tris buffer. Optical densities are read on a automated spectrophotometric plate reader at a single wavelength of 490 nm.
(§12) The values for mean+/−SD of data from triplicate wells are calculated. Some parameters for cellular responses can be calculated: GI=growth inhibition, TGI=total growth inhibition (cytostatic effect) and LC=cell killing (cytotoxic effect).
as §6, with “GI50” for “IC50”, “10” for “1”, “GI50's” for “IC50's”

[4] = tested on: A-549; test: Inhibition of cells growth by colorimetric assay (SRB), A-549; type: cell-based; conditions: for GI50 / LC50 (concentration for 50% cell killing): Homo sapiens, A549, 48 h; for GI50: read-out: A-549 GI50; for LC50 (concentration for 50% cell killing): read-out: A-549 LC50, SRB assay, 48 hours exposure
Method: as §7, §8, §9, §10, §11, §12
as §6, with “GI50” for “IC50”, “10” for “1”, “GI50's” for “IC50's”

[5] = read-out: HT-29 LC50, SRB assay, 48 hours exposure
[6] = SRB assay, 48 hours exposure, read-out: HT-29 GI50

Row | Structure (SMILES) | IC50 [1] [nM] | IC50 [2] [nM] | LC50 (concentration for 50% cell killing) [4] [nM] | A-549 TGI ([4]; SRB assay, 48 hours exposure) | also measured
1 | COc1cc2c(cc1OC(=O)CCc1ccccc1)CCN[C@]21CS[C@@H]2c3c(OC(C)=O)c(C)c4c(c3[C@H](COC1=O)N1C2[C@H]2c3c(cc(C)c(OC)c3O)C[C@@H]([C@@H]1C#N)N2C)OCO4 (stereo partly drawn) [Compound 11] | 0.554 | 0.554 |  |  | 
2 | COc1cc2c(cc1OC(=O)CCCl)CCN[C@]21CS[C@@H]2c3c(OC(C)=O)c(C)c4c(c3[C@H](COC1=O)N1C2[C@H]2c3c(cc(C)c(OC)c3O)C[C@@H]([C@@H]1C#N)N2C)OCO4 (stereo partly drawn) [Compound 12] | 0.116 | 0.116 |  |  | 
3 | COc1cc2c(cc1OC(=O)[C@H](C)NC(=O)OC(C)(C)C)CCN[C@]21CS[C@@H]2c3c(OC(C)=O)c(C)c4c(c3[C@H](COC1=O)N1C2[C@H]2c3c(cc(C)c(OC)c3O)C[C@@H]([C@@H]1C#N)N2C)OCO4 (stereo partly drawn) [Compound 24] | 0.531 | 0.531 |  |  | 
4 | COc1cc2c(cc1OC(=O)OC(C)(C)C)CCN[C@]21CS[C@@H]2c3c(OC(C)=O)c(C)c4c(c3[C@H](COC1=O)N1C2[C@H]2c3c(cc(C)c(OC)c3OC)C[C@@H]([C@@H]1C#N)N2C)OCO4 (stereo partly drawn) [Compound 45] | 0.113 | 0.113 |  |  | 
5 | COC1=C(C)C(=O)C2=C(C1=O)[C@@H]1C3[C@@H]4SC[C@]5(NCCc6cc(O)c(OC)cc65)C(=O)OC[C@@H](c5c6c(c(C)c(OC(C)=O)c54)OCO6)N3[C@@H](C#N)[C@H](C2)N1C (stereo partly drawn) [Compound 52] | 1.27 | 1.27 |  |  | 
6 | CCCC(=O)Oc1cc2c(cc1OC)[C@@]1(CS[C@@H]3c4c(OC(C)=O)c(C)c5c(c4[C@H](COC1=O)N1C3[C@H]3c4c(cc(C)c(OC)c4OC(=O)CCC)C[C@@H]([C@@H]1O)N3C)OCO5)NCC2 (stereo partly drawn) [Compound 81] | 5.54 | 5.54 |  |  | 
7 | CCCCCCCC(=O)Oc1cc2c(cc1OC)[C@@]1(CS[C@@H]3c4c(OC(C)=O)c(C)c5c(c4[C@H](COC1=O)N1C3[C@H]3c4c(cc(C)c(OC)c4OC(=O)CCCCCCC)C[C@@H]([C@@H]1O)N3C)OCO5)NCC2 (stereo partly drawn) [Compound 82] | 98.6 | 98.6 |  |  | 
8 | COc1cc2c(cc1OC(=O)/C=C/c1ccccc1)CCN[C@]21CS[C@@H]2c3c(OC(C)=O)c(C)c4c(c3[C@H](COC1=O)N1C2[C@H]2c3c(cc(C)c(OC)c3OC(=O)/C=C/c3ccccc3)C[C@@H]([C@@H]1O)N2C)OCO4 (stereo partly drawn) [Compound 84] | 48.9 | 48.9 |  |  | 
9 | COc1cc2c(cc1OC(=O)OCc1ccccc1)CCN[C@]21CS[C@@H]2c3c(OC(C)=O)c(C)c4c(c3[C@H](COC1=O)N1C2[C@H]2c3c(cc(C)c(OC)c3OC(=O)OCc3ccccc3)C[C@@H]([C@@H]1O)N2C)OCO4 (stereo partly drawn) [Compound 85] | 9.71 | 9.71 |  |  | 
10 | COc1cc2c(cc1OC(=O)OC(C)(C)C)CCN[C@]21CS[C@@H]2c3c(OC(=O)OC(C)(C)C)c(C)c4c(c3[C@H](COC1=O)N1C2[C@H]2c3c(cc(C)c(OC)c3O)C[C@@H]([C@@H]1C#N)N2C)OCO4 (stereo partly drawn) [Compound 108] | 0.108 | 0.108 |  |  | 
11 | COc1cc2c(cc1OC(=O)OC(C)(C)C)CCN[C@]21CS[C@@H]2c3c(OC(=O)C(F)(F)F)c(C)c4c(c3[C@H](COC1=O)N1C2[C@H]2c3c(cc(C)c(OC)c3OC(=O)C(F)(F)F)C[C@@H]([C@@H]1C#N)N2C)OCO4 (stereo partly drawn) [Compound 109] | 0.98 | 0.98 |  |  | 
12 | COc1cc2c(cc1OC(=O)OC(C)(C)C)CCN[C@]21CS[C@@H]2c3c(OC(=O)OC(C)(C)C)c(C)c4c(c3[C@H](COC1=O)N1C2[C@H]2c3c(cc(C)c(OC)c3OC(=O)OC(C)(C)C)C[C@@H]([C@@H]1C#N)N2C)OCO4 (stereo partly drawn) [Compound 110] | 0.0972 | 0.0972 |  |  | 
13 | CCCC(=O)Oc1c(C)c2c(c3c1[C@H]1SC[C@]4(NCCc5cc(OC(=O)OC(C)(C)C)c(OC)cc54)C(=O)OC[C@@H]3N3C1[C@H]1c4c(cc(C)c(OC)c4OC(=O)CCC)C[C@@H]([C@@H]3C#N)N1C)OCO2 (stereo partly drawn) [Compound 112] | 10.3 | 10.3 |  |  | 
14 | CCCC(=O)Oc1cc2c(cc1OC)[C@@]1(CS[C@@H]3c4c(OC(C)=O)c(C)c5c(c4[C@H](COC1=O)N1C3[C@H]3c4c(cc(C)c(OC)c4OC(=O)CCC)C[C@@H]([C@@H]1C#N)N3C(=O)OC(C)(C)C)OCO5)NCC2 (stereo partly drawn) [Compound 193] |  |  | 100 | 4.01E-09 | GI50 ([3]; read-out: HT-29 GI50): 0.1 nM; LC50 (concentration for 50% cell killing) [3, 5]: 20100 nM; HT-29 TGI ([3]; SRB assay, 48 hours exposure): 2.01E-08; GI50 [4]: 0.401 nM
15 | COc1cc2c(cc1O)CCN(C)[C@]21CS[C@@H]2c3c(OC(C)=O)c(C)c4c(c3[C@H](COC1=O)N1C2[C@H]2c3c(cc(C)c(OC)c3O)C[C@@H]([C@@H]1C#N)N2C(=O)OC(C)(C)C)OCO4 (stereo partly drawn) [Compound 200] |  |  | 115 | 3.45E-08 | GI50 [3, 6]: 23 nM; LC50 (concentration for 50% cell killing) [3, 5]: 1150 nM; HT-29 TGI ([3]; SRB assay, 48 hours exposure): 8.05E-09; GI50 ([4]; SRB assay, 48 hours exposure): 23 nM
16 | COc1cc2c(cc1OC(C)=O)CCN[C@]21CS[C@@H]2c3c(OC(C)=O)c(C)c4c(c3[C@H](COC1=O)N1C2[C@@H]2N[C@@H](Cc3cc(C)c(OC)c(O)c32)[C@@H]1O)OCO4 (stereo partly drawn) [Compound 210] |  |  | 38000 | 5.06E-13 | LC50 (concentration for 50% cell killing) [3, 5]: 63300 nM; HT-29 TGI ([3]; SRB assay, 48 hours exposure): 6.33E-08
17 | CCCC(=O)Oc1cc2c(cc1OC)[C@@]1(CS[C@@H]3c4c(OC(C)=O)c(C)c5c(c4[C@H](COC1=O)N1C3[C@@H]3N[C@@H](Cc4cc(C)c(OC)c(O)c43)[C@@H]1O)OCO5)NCC2 (stereo partly drawn) [Compound 211] |  |  | 61100 | 6.11E-09 | GI50 [3, 6]: 0.00122 nM; LC50 (concentration for 50% cell killing) [3, 5]: 61100 nM; HT-29 TGI ([3]; SRB assay, 48 hours exposure): 1.22E-12; GI50 ([4]; SRB assay, 48 hours exposure): 0.00367 nM
18 | CC(=O)Oc1c(C)c2c(c3c1[C@H]1SCC(=O)C(=O)OC[C@@H]3N3C1[C@H]1c4c(cc(C)c(O)c4O)C[C@@H]([C@@H]3C#N)N1C)OCO2 (stereo partly drawn) [Compound 219] |  |  | 16500 | 1.65E-06 | GI50 [3, 6]: 82.4 nM; LC50 (concentration for 50% cell killing) [3, 5]: 16500 nM; HT-29 TGI ([3]; SRB assay, 48 hours exposure): 1.65E-06; GI50 ([4]; SRB assay, 48 hours exposure): 8.24 nM
19 | COc1cc2c(cc1O)CCN[C@]21CS[C@@H]2c3c(OC(C)=O)c(C)c4c(c3[C@H](COC1=O)N1C2[C@H]2c3c(cc(C)c(O)c3O)C[C@@H]([C@@H]1C#N)N2C)OCO4 (stereo partly drawn) [Compound 220] |  |  | 6610 | 3.96E-07 | GI50 ([3]; read-out: H-T29 GI50): 132 nM; LC50 (concentration for 50% cell killing) ([3]; read-out: H-T29 LC50, SRB assay, 48 hours exposure): 1320 nM; H-T29 TGI ([3]; SRB assay, 48 hours exposure): 5.28E-07; GI50 [4]: 132 nM
